Results published in patent publication US10329303B2, “Heterocyclic inhibitors of monocarboxylate transporter” (THE SCRIPPS RESEARCH INSTITUTE, priority 2015, dated 2019).

System: Raji (Burkitt's) lymphoma cells
Assay: MTT assay for 4-day viability of Raji (Burkitt's) lymphoma cells
Format: cell-based
Conditions: Homo sapiens, 96 h, Raji cells (highly express MCT1), read-out: approximate potency (EC50)
Excerpt: Specific Examples 1-52 of compounds of the invention, with estimated EC50 values determined using an MTT assay for 4-day viability of Raji (Burkitt's) lymphoma cells, a cell line known to highly express MCT1 and to be sensitive to small molecule MCT inhibitors,^4 are shown in Table 2. Assay protocols follow those described in the literature.^4 Other assays that are not described here but that are standard in the field, such as an assay for competitive inhibition of transport of radiolabeled lactic acid, an MCT substrate, may also be useful in establishing mechanism of action of these compounds.

EC50 [µM] | SMILES
0.075 | Cc1n[nH]c(C)c1Cc1sc2c(c1-c1cncc(CO)c1)c(=O)n(C)c(=O)n2CC(C)C [Example 12, 6-((3,5-dimethyl-1H-pyrazol-4-yl)methyl)-5-(5-(hydroxymethyl)pyridin-3-yl)-1-isobutyl-3-methylthieno[2,3-d]pyrimidine-2,4(1H,3H)-dione]
0.05 | Cc1n[nH]c(C)c1Cc1sc2c(c1-c1cccc(C(C)O)c1)c(=O)n(C)c(=O)n2CC(C)C (stereo not shown) [Example 13, 6-((3,5-dimethyl-1H-pyrazol-4-yl)methyl)-5-(3-(1-hydroxyethyl)phenyl)-1-isobutyl-3-methylthieno[2,3-d]pyrimidine-2,4(1H,3H)-dione]
0.07 | Cc1n[nH]c(C)c1Cc1sc2c(c1-c1cc(CO)c(F)cc1F)c(=O)n(C1CC1)c(=O)n2CC(C)C [Example 19, 3-cyclopropyl-5-(2,4-difluoro-5-(hydroxymethyl)phenyl)-6-((3,5-dimethyl-1H-pyrazol-4-yl)methyl)-1-isobutylthieno[2,3-d]pyrimidine-2,4(1H,3H)-dione]
≤ 0.02 | CC(C)Cc1nn(C)c(=O)c2c(-c3csc(C(O)C(F)(F)F)c3)n(Cc3cccc4ccccc34)cc12 (stereo not shown) [Example 38, 4-isobutyl-2-methyl-6-(naphthalen-1-ylmethyl)-7-(5-(2,2,2-trifluoro-1-hydroxyethyl)thiophen-3-yl)-2,6-dihydro-1H-pyrrolo[3,4-d]pyridazin-1-one]
0.1 | Cc1cc(CO)c(F)c(-c2c(Cc3c(C)n[nH]c3C)sc3c2c(=O)n(C)c(=O)n3CC(C)C)c1 [Example 2, 6-((3,5-dimethyl-1H-pyrazol-4-yl)methyl)-5-(2-fluoro-3-(hydroxymethyl)-5-methylphenyl)-1-isobutyl-3-methylthieno[2,3-d]pyrimidine-2,4(1H,3H)-dione]
0.08 | CC(C)Cc1nn(C)c(=O)c2c(-c3cc(C(C)O)ccc3F)n(Cc3cccc4ccccc34)cc12 (stereo not shown) [Example 35, 7-(2-fluoro-5-(1-hydroxyethyl)phenyl)-4-isobutyl-2-methyl-6-(naphthalen-1-ylmethyl)-2,6-dihydro-1H-pyrrolo[3,4-d]pyridazin-1-one]
1 to 10 | CC(C)Cc1nn(C)c(=O)c2c(-c3cccc(CO)c3)n(CCOc3ccccc3Cl)cc12 [Example 48, 6-(2-(2-chlorophenoxy)ethyl)-7-(3-(hydroxymethyl)phenyl)-4-isobutyl-2-methyl-2,6-dihydro-1H-pyrrolo[3,4-d]pyridazin-1-one]
0.9 | CC(C)Cc1nn(C)c(=O)c2c(-c3cncc(CO)c3)n(Cc3cccc4ccccc34)cc12 [Example 32, 7-(5-(hydroxymethyl)pyridin-3-yl)-4-isobutyl-2-methyl-6-(naphthalen-1-ylmethyl)-2,6-dihydro-1H-pyrrolo[3,4-d]pyridazin-1-one]
1 | Cc1n[nH]c(C)c1Cc1sc2c(c1-c1cccc(CO)c1)c(=O)n(C1CC1)c(=O)n2CC(C)C [Example 24, 3-cyclopropyl-6-((3,5-dimethyl-1H-pyrazol-4-yl)methyl)-5-(3-(hydroxymethyl)phenyl)-1-isobutylthieno[2,3-d]pyrimidine-2,4(1H,3H)-dione]
≤ 0.02 | Cc1n[nH]c(C)c1Cc1sc2c(c1-c1ccnc(CO)c1)c(=O)n(C1CC1)c(=O)n2CC(C)C [Example 23, 3-cyclopropyl-6-((3,5-dimethyl-1H-pyrazol-4-yl)methyl)-5-(2-(hydroxymethyl)pyridin-4-yl)-1-isobutylthieno[2,3-d]pyrimidine-2,4(1H,3H)-dione]
0.22 | Cc1n[nH]c(C)c1Cc1sc2c(c1-c1ccc(F)c(CO)c1)c(=O)n(C1CC1)c(=O)n2CC(C)C [Example 16, 3-cyclopropyl-6-((3,5-dimethyl-1H-pyrazol-4-yl)methyl)-5-(4-fluoro-3-(hydroxymethyl)phenyl)-1-isobutylthieno[2,3-d]pyrimidine-2,4(1H,3H)-dione]
0.5 | Cc1n[nH]c(C)c1Cn1cc2c(CC(C)C)nn(C)c(=O)c2c1-c1cccc(CO)c1 [Example 43, 6-((3,5-dimethyl-1H-pyrazol-4-yl)methyl)-7-(3-(hydroxymethyl)phenyl)-4-isobutyl-2-methyl-2,6-dihydro-1H-pyrrolo[3,4-d]pyridazin-1-one]
0.034 | Cc1n[nH]c(C)c1Cc1sc2c(c1-c1cncc(C(O)C(F)(F)F)c1)c(=O)n(C)c(=O)n2CC(C)C (stereo not shown) [Example 8, 6-((3,5-dimethyl-1H-pyrazol-4-yl)methyl)-1-isobutyl-3-methyl-5-(5-(2,2,2-trifluoro-1-hydroxyethyl)pyridin-3-yl)thieno[2,3-d]pyrimidine-2,4(1H,3H)-dione]
1 to 10 | CC(C)Cc1nn(C)c(=O)c2c(-c3cccc(CO)c3)n(Cc3cc(NCCCCCN)nc4ccccc34)cc12 [Example 49, 6-((2-((5-aminopentyl)amino)quinolin-4-yl)methyl)-7-(3-(hydroxymethyl)phenyl)-4-isobutyl-2-methyl-2,6-dihydro-1H-pyrrolo[3,4-d]pyridazin-1-one]
0.1 | CC(C)Cc1nn(C)c(=O)c2c(-c3cccc(C(C)O)c3)n(Cc3cccc4ccccc34)cc12 (stereo not shown) [Example 36, 7-(3-(1-hydroxyethyl)phenyl)-4-isobutyl-2-methyl-6-(naphthalen-1-ylmethyl)-2,6-dihydro-1H-pyrrolo[3,4-d]pyridazin-1-one]
0.1 | Cc1cc(CO)c(F)c(-c2c(Cc3c(C)n[nH]c3C)sc3c2c(=O)n(C2CC2)c(=O)n3CC(C)C)c1 [Example 17, 3-cyclopropyl-6-((3,5-dimethyl-1H-pyrazol-4-yl)methyl)-5-(2-fluoro-3-(hydroxymethyl)-5-methylphenyl)-1-isobutylthieno[2,3-d]pyrimidine-2,4(1H,3H)-dione]
0.6 | CC(C)Cc1nn(C)c(=O)c2c(-c3cc(CO)ccc3Cl)n(Cc3cccc4ccccc34)cc12 [Example 30, 7-(2-chloro-5-(hydroxymethyl)phenyl)-4-isobutyl-2-methyl-6-(naphthalen-1-ylmethyl)-2,6-dihydro-1H-pyrrolo[3,4-d]pyridazin-1-one]
0.1 | CC(C)Cc1nn(C)c(=O)c2c(-c3cccc(CO)c3)n(Cc3cccc4ccccc34)cc12 [Example 31, 7-(3-(hydroxymethyl)phenyl)-4-isobutyl-2-methyl-6-(naphthalen-1-ylmethyl)-2,6-dihydro-1H-pyrrolo[3,4-d]pyridazin-1-one]
0.09 | Cc1n[nH]c(C)c1Cc1sc2c(c1-c1ccnc(CO)c1)c(=O)n(C)c(=O)n2CC(C)C [Example 10, 6-((3,5-dimethyl-1H-pyrazol-4-yl)methyl)-5-(2-(hydroxymethyl)pyridin-4-yl)-1-isobutyl-3-methylthieno[2,3-d]pyrimidine-2,4(1H,3H)-dione]
0.05 | CC(C)Cc1nn(C)c(=O)c2c(-c3cccc(C(O)C(F)(F)F)c3)n(Cc3cccc4ccccc34)cc12 (stereo not shown) [Example 40, 4-isobutyl-2-methyl-6-(naphthalen-1-ylmethyl)-7-(3-(2,2,2-trifluoro-1-hydroxyethyl)phenyl)-2,6-dihydro-1H-pyrrolo[3,4-d]pyridazin-1-one]
0.09 | CC(C)Cc1nn(C)c(=O)c2c(-c3csc(CO)n3)n(Cc3cccc4ccccc34)cc12 [Example 26, 7-(2-(hydroxymethyl)thiazol-4-yl)-4-isobutyl-2-methyl-6-(naphthalen-1-ylmethyl)-2,6-dihydro-1H-pyrrolo[3,4-d]pyridazin-1-one]
≤ 0.02 | Cc1n[nH]c(C)c1Cc1sc2c(c1-c1ccc(F)c(CO)c1F)c(=O)n(C)c(=O)n2CC(C)C [Example 7, 5-(2,4-difluoro-3-(hydroxymethyl)phenyl)-6-((3,5-dimethyl-1H-pyrazol-4-yl)methyl)-1-isobutyl-3-methylthieno[2,3-d]pyrimidine-2,4(1H,3H)-dione]
≤ 0.02 | Cc1n[nH]c(C)c1Cn1cc2c(CC(C)C)nn(C)c(=O)c2c1-c1cccc(C(O)C(F)(F)F)c1 (stereo not shown) [Example 45, 6-((3,5-dimethyl-1H-pyrazol-4-yl)methyl)-4-isobutyl-2-methyl-7-(3-(2,2,2-trifluoro-1-hydroxyethyl)phenyl)-2,6-dihydro-1H-pyrrolo[3,4-d]pyridazin-1-one]
1 to 10 | CC(C)Cc1nn(C)c(=O)c2c(-c3cccc(C(C)O)c3)n(Cc3ccc(-c4ccccc4)cc3)cc12 (stereo not shown) [Example 42, 6-([1,1′-biphenyl]-4-ylmethyl)-7-(3-(1-hydroxyethyl)phenyl)-4-isobutyl-2-methyl-2,6-dihydro-1H-pyrrolo[3,4-d]pyridazin-1-one]
0.1 | CC(C)Cc1nn(C)c(=O)c2c(-c3csc(C(O)C(F)(F)F)n3)n(Cc3cccc4ccccc34)cc12 (stereo not shown) [Example 37, 4-isobutyl-2-methyl-6-(naphthalen-1-ylmethyl)-7-(2-(2,2,2-trifluoro-1-hydroxyethyl)thiazol-4-yl)-2,6-dihydro-1H-pyrrolo[3,4-d]pyridazin-1-one]
0.2 | Cc1n[nH]c(C)c1Cn1cc2c(CC(C)C)nn(C)c(=O)c2c1-c1cc(CO)ccc1F [Example 44, 6-((3,5-dimethyl-1H-pyrazol-4-yl)methyl)-7-(2-fluoro-5-(hydroxymethyl)phenyl)-4-isobutyl-2-methyl-2,6-dihydro-1H-pyrrolo[3,4-d]pyridazin-1-one]
0.3 | CC(C)Cc1nn(C)c(=O)c2c(-c3ncc(CO)s3)n(Cc3cccc4ccccc34)cc12 [Example 25, 7-(5-(hydroxymethyl)thiazol-2-yl)-4-isobutyl-2-methyl-6-(naphthalen-1-ylmethyl)-2,6-dihydro-1H-pyrrolo[3,4-d]pyridazin-1-one]
0.07 | CC(C)Cc1nn(C)c(=O)c2c(-c3csc(C(C)O)c3)n(Cc3cccc4ccccc34)cc12 (stereo not shown) [Example 33, 7-(5-(1-hydroxyethyl)thiophen-3-yl)-4-isobutyl-2-methyl-6-(naphthalen-1-ylmethyl)-2,6-dihydro-1H-pyrrolo[3,4-d]pyridazin-1-one]
